One series in a line: Thermodynamic solubility. The format is physicochemical. As to conditions: aqueous buffer, thermodynamic from solid; 100 mM phosphate buffer pH 7.4, room temperature, shaking 16 hours.
The nature of series [1]: In vivo pharmacokinetic study in rats, intravenous. As to conditions: rat, 2 mg/kg.
Procedure: Rats were used as test subjects. […] This study evaluated the pharmacokinetic behavior of the compounds in rats and assessed their pharmacokinetic characteristics.
Intravenous push injection was performed over approximately 5 minutes, with a dose of 2 mg/kg, a concentration of 0.4 mg/mL, and a volume of 5 mL/kg.
(§1) Sodium heparin was used as an anticoagulant. Immediately after collection, whole blood proteins were precipitated using methanol:acetonitrile (1:1), and the supernatant was transferred for LC/MS/MS analysis.
Series [2] is described as follows: Pharmacokinetic study in crab-eating monkeys, intravenous infusion. As to conditions: monkey, 2 mg/kg.
Procedure: Crab-eating monkeys were used as test subjects.
Intravenous infusion was performed over 30 minutes, with a dose of 2 mg/kg, a concentration of 0.4 mg/mL, and a volume of 5 mL/kg.
as §1
The nature of series [3]: Liver S9 stability assay (conversion to parent drug). In kind it is in vitro ADME. As to conditions: human liver S9 with NADPH, 37 °C. As to the method:
Human pooled liver S9 (Vendor: Xenotech), thawed in a 37°C water bath before use.
Weigh a certain amount of the example compound, dissolve in DMSO to prepare a 10 mM stock solution, then dilute an appropriate volume of the stock solution with DMSO to obtain a 200 µM working solution.
Take 1.5 µL of the 200 µM working solution of the example compound and add it to 238.5 µL of liver S9 working solution, pre-incubate in a 37°C water bath for 5 min; then add 60 µL of NADPH working solution to initiate the reaction and mix by gentle inversion. At the 0 min time point, transfer the above mixture into quenching solution and mix; at the 5, 15, 30, and 60 min time points, transfer the mixture into quenching solution and DMSO and mix. […] Collect the supernatant for LC-MS analysis.

Series [4] relates to red blood cell suspension. Kind of series: In vitro human hemolysis assay. In kind it is cell-based. The following applies: concentrations as high as 200 µM, 37 °C, 45 minutes.
Procedure: Collect the whole blood and store it in a 250 mL Erlenmeyer flask. Shake at 500 rpm for 10 minutes to remove fibrinogen, producing defibrinated blood. Wash with physiological saline (blood volume: saline volume = 1:4). Centrifuge the blood/saline mixture at 2500 rpm for 15 minutes at 4°C, discard the supernatant. Wash the sedimented red blood cells several times with physiological saline (blood volume: saline volume = 1:4) and centrifuge at 2500 rpm for 15 minutes until the supernatant is no longer red. Prepare a red blood cell suspension using physiological saline at a ratio of 1:49 (cell volume: saline volume) and store at 4°C until use.
Observe for aggregation every 15 minutes. • 3) Centrifuge the resulting solution at 4000 rpm for 15 minutes at 4°C. Transfer 100 µL of the supernatant and measure absorbance at 540 nm to calculate the hemolysis rate (%).
Series [5] is described as follows: Plasma stability assay (conversion to parent drug). The format is in vitro ADME. As to conditions: human plasma, 37 °C, 1 µM. As to the method: Human plasma (Vendor: AoNeng Biotech).
A certain amount of the compound of the examples was weighed and dissolved in DMSO to prepare a 10 mM stock solution. An aliquot of the 10 mM stock solution was diluted with DMSO to obtain a 1600 µM intermediate solution. An aliquot of the 1600 µM intermediate solution was further diluted with 45% methanol to prepare a 16 µM working solution.
• 1) Plasma was pre-incubated in a water bath at 37 °C for 5 min. • 2) 4 µL of the 16 µM working solution of the compound of the examples was added to 60 µL of plasma to give a final compound concentration of 1 µM, and the mixture was gently mixed. • 3) Samples were incubated at each time point (0, 15, 30, 60, and 120 min). After incubation, 192 µL of acetonitrile containing an internal standard was added, followed by shaking on a shaker for 1 min. The mixture was centrifuged at 3700 rpm at 4 °C for 20 min, and the supernatant was collected for LC-MS analysis.

The mark [6] stands for this setting: time point 0 min, parent drug = Lorapiprant.

≈ marks a conversion by molar mass, not a printed value.

Procedure for Thermodynamic solubility: 100 mM phosphate buffer solution: Dissolve 7.94 g of K2HPO4.3H2O and 2.07 g of KH2PO4 in 500 mL ultrapure water. Adjust the solution pH to 7.4 with 1 N NaOH, then filter and set aside.
Accurately weigh an appropriate amount of the example compound and add it in small portions to 100 mM phosphate buffer solution to prepare a final concentration of 20 mg/mL. After shaking at room temperature for 16 hours, let stand for 30 min, then filter the supernatant and dilute with DMSO. Add the diluted sample solution to quenching solution, mix thoroughly, and analyze by LC/MS.

By solubility is commonly meant the dissolved amount per volume that the medium holds. Consider `C[C@@H](OC[C@@]1(c2ccccc2)CC[C@]2(CCC(=O)N2)CN1C(=O)OCSSCCOCCOCCOCCC(=O)O)c1cc(C(F)(F)F)cc(C(F)(F)F)c1` [Example 47], for which the solubility at 16 h in the series “Thermodynamic solubility” was 10.9 mg/mL (≈ 13.2 mM).

One may read the AUC(0-t) as exposure summed from dosing to a finite time, without extrapolation to infinity. High values mean more exposure, low ones less exposure. A word on the Cmax: it is the highest concentration seen after dosing. For orientation: MRT inf means the average time that molecules of a dose stay in the body. Broadly, the Tmax is the time from dosing to the highest level. A word on the half-life: it is the time needed for the level to fall by half in the phase considered. Higher therefore signals slow decline. Consider `C[C@@H](OC[C@@]1(c2ccccc2)CC[C@]2(CCC(=O)N2)CN1C(=O)OCOP(=O)(O)O)c1cc(C(F)(F)F)cc(C(F)(F)F)c1` [Compound of formula (I), reference compound], for which, in series [1] (whole blood), the AUC(0-t) was 82.6 ng·h/mL, the concentration peaked (Cmax) at 328 ng/mL, the MRT inf turned out to be 21 min and the Tmax was 5 min. The half-life in series [1] (whole blood) is 26.3 min. In addition, in series [2] (whole blood), the AUC(0-t) worked out at 688 ng·h/mL, the peak level (Cmax) was 2110 ng/mL, the Tmax was 30 min and the half-life is 9.06 min.

For `C[C@@H](OC[C@@]1(c2ccccc2)CC[C@]2(CCC(=O)N2)CN1C(=O)OCSSCCC(=O)O)c1cc(C(F)(F)F)cc(C(F)(F)F)c1` [Example 33], the Parent drug% in series [3] (setting [6]) is given as 13.2%; in series [3] (time point 5 min), 22.5%; in series [3] (time point 15 min) it was 41.9%; in series [3] (time point 30 min), 50.0%; in series [3] (time point 60 min), 57.3%.

As to `C[C@@H](OC[C@@]1(c2ccccc2)CC[C@]2(CCC(=O)N2)CN1C(=O)OCSSCCCOS(=O)(=O)O)c1cc(C(F)(F)F)cc(C(F)(F)F)c1` [Example 39], the hemolytic activity result in series [4] is recorded as “no hemolytic activity”. In series [1] (whole blood), the AUC(0-t) amounted to 19.9 ng·h/mL, the highest level (Cmax) was 116 ng/mL, the MRT inf stood at 7.56 min and the Tmax came out at 5 min. For the same compound, in series [1] (whole blood), the half-life is 8.34 min. The same compound yielded a solubility at 16 h in the series “Thermodynamic solubility” of 6.54 mg/mL (≈ 8.6 mM).

`C[C@@H](OC[C@@]1(c2ccccc2)CC[C@]2(CCC(=O)N2)CN1C(=O)OCSSCCS(=O)(=O)O)c1cc(C(F)(F)F)cc(C(F)(F)F)c1` [Example 42]: the Parent drug% was found to be 6.09% in series [5] (setting [6]); 52.71% in series [5] (time point 15 min); 60.94% in series [5] (time point 30 min); 53.88% in series [5] (time point 60 min); 66.59% in series [5] (time point 120 min); 34.8% in series [3] (setting [6]). The Parent drug% in series [3] (time point 5 min) is given as 40.6%; in series [3] (time point 15 min) it was 48.5%; in series [3] (time point 30 min), 51.9%; in series [3] (time point 60 min) it was 44.0%. Also, the AUC(0-t) in series [1] (in vivo) was determined as 9.42 ng·h/mL; in series [2] (in vivo) it was 528 ng·h/mL. Moreover, the Cmax amounted to 61.2 ng/mL in series [1] (in vivo) and 1620 ng/mL in series [2] (in vivo). The same compound registered a mean residence time MRT inf in series [1] (in vivo) of 5.45 min. In addition, the values for the Tmax in series [1] (in vivo) and in series [2] (in vivo) were 5 min and 30 min, respectively. For the same compound, the half-life in series [1] (in vivo) is 4.66 min; in series [2] (in vivo) it was 6.06 min. The compound further came in with a solubility at 16 h in the series “Thermodynamic solubility” of 13.2 mg/mL (≈ 18.1 mM).

(Values after patent EP4741406A1, “NEUROKININ-1 RECEPTOR ANTAGONIST COMPOUND” (Creadev (Nanjing) Pharmaceutical Technology Co., Ltd., priority 2023, dated 2025).)
